Experimental data: patent publication US9932339B2, “Helquats with heteroaromatic substituents, preparation thereof, and use thereof as G-quadruplex stabilizers” (USTAV ORGANICKE CHEMIE A BIOCHEMIE AV CR, V.V.I., priority 2014, dated 2018)
Where two headings read alike, the source gives them in different places.

Key:
c-myc protein = test: Immunodetection of protein c-myc in HGC-27 cell lysates (Western blot); format: cell-based, human; settings: 50 μmol · l^−1, 24 hour incubation, normalized to β-actin
Procedure: Determination of changes in c-myc protein expression (transcription factor) in cell lysates prepared from tumor cell line HGC-27 after treatment with test helquats (Tab. 7) was carried out by immunodetection after separation of proteins according to their size by gel electrophoresis (SDS-PAGE) and blotting.
To determine the influence helquats on expression of c-myc protein, the cells were cultured under standard conditions and in the exponential growth phase were seeded into flasks at a density of 25,000 cells/cm^2. The next day selected helquats were added at a concentration of 50 μmol·l^−1. After 24 hour incubation, the cell pellets were obtained and, after addition of RIPA buffer with protease inhibitors (PrIC) and phosphatases (PhIC) (for composition see Tab. 8) cell lysates were prepared. 150 μl of RIPA buffer was used for 10^7 cells. Protein concentrations in the lysates were measured by BCA method. Separation of proteins in the lysates was carried out on a 12% denaturing polyacrylamide gel. The separated proteins were transferred to PVDF membrane by Western blotting.
Incubation with primary mouse monoclonal antibody against the protein c-myc (dilution 1:1000 in “SignalBoost” reagent) was carried out overnight at 4° C., and then with the primary mouse anti-β-actin (1:5000 dilution in 5% milk in TBS-T buffer) at room temperature for 2 hours. Subsequently, the secondary horse monoclonal antibody conjugated to horseradish peroxidase (diluted 1:2000 in 5% milk in TBS-T buffer) binding to mouse IgG antibody was applied. C-myc proteins and β-actin bound to the membrane were visualized using detection kit (SuperSignal® West Femto Maximum Sensitivity Substrate, Cat. No. 34095, Thermo Fisher Scientific, Inc., USA) in the chemiluminescence detection system ImageQuant LAS 4000 Mini (Cat. No. 28-9558-13, GE Healthcare Life Sciences, USA). The amount of protein was quantified by densitometry in Quantity One software. The amount of c-myc in the samples was normalized to β-actin, and subsequently related to a control sample.

CCRF-CEM = test: XTT cytotoxicity/proliferation assay, CCRF-CEM; format: cell-based; settings: Homo sapiens, CCRF-CEM
Procedure: To assess the antiproliferative effects of the tested substances in vitro, tumor cell line CCRF-CEM derived from acute lymphoblastic leukemia and normal (healthy) HUVEC endothelial cells from umbilical vein were used. Both of these cell lines were cultured under optimal conditions for their growth in the appropriate medium in plastic bottles or plastic Petri dishes of various sizes (TPP, BD Biosciences) at 37° C., 5% CO2 and 95% humidity. HUVEC cells were purchased from BD Biosciences. CCRF-CEM cell line was obtained from ATCC/LGC Standards (American Type Cell Collection).
Suspension cell line CCRF-CEM is a continuous in vitro culture of acute lymphoblastic leukemia. Cell line CCRF-CEM was grown in RPMI 1640 medium (Sigma-Aldrich, cat. No. R8758) supplemented with 2 mmol·l^−1 glutamine (Invitrogen, cat. No. 35050-038), 10% fetal bovine serum (FBS; Sigma-Aldrich, cat. No. F9665), 100 IU/ml penicillin, 100 μg/ml streptomycin (Sigma-Aldrich, cat. No. P0781). Passaging was carried out 2-3 times a week. Population doubling time of CCRF-CEM cells under the used culture conditions is 20 hours.
For testing of the sensitivity of cell lines to studied helquats XTT cytotoxicity/proliferation assay for determination of cell viability was used. This method is based on the ability of metabolically active cells to reduce the yellow tetrazolium salt XTT to orange formazan. The rate of conversion is measured as the increase in absorbance at 492 nm and is proportional to the enzymatic activity of mitochondrial dehydrogenases and thus the number of metabolically active (viable) cells. The output is the IC50 value corresponding to the concentration of the test substance that causes a decrease in the number of viable cells by half (i.e. 50% slowdown of cell division) relative to the control, untreated population. Thus it reflects the effectiveness of the test substance towards the tested cell line.
Cells in exponential growth phase were plated into 96-well microtiter plate at a concentration of 3000 cells per well. Each well contained 90 μl of cell suspension. The following day, 10 μl of 10× concentrated test substances was added. Effect of helquats has been studied in the concentration range 1-100 μmol·l^−1 (or 1, 2.5, 5, 7.5, 10; 15; 25; 50 and 100 μmol·l^−1). In addition to the part of the plate containing the mentioned dilutions of test compounds there were always two control columns present, first column with medium alone (i.e. blank) and the second column with the cells in medium without test compounds (control). Into the blank and control wells the same volume of solvent (water) as the volume of the substances was added. After 72 hours of treatment with substances the measurement of viability was performed according to the manufacturer instructions. Briefly, into each well of a 96-well microtiter plate 50 μl of the prepared working solution of XTT (detection reagent) was added and then the microtiter plate was returned to the CO2 incubator. After 2 hours, the absorbance of each well at 492 nm (reference wavelength 690 nm) was measured using a multifunctional microplate reader (Tecan Genios, Austria).
The results of determination of the viability of cancer and normal cells after treatment with different concentrations of test substances are summarized in Table 9. […] Each concentration of a helquat was tested in triplicates within one IC50 value determination. Each of these IC50 value determinations was repeated in at least three independent experiments. Values above 100 μmol·l^−1 were obtained by extrapolation of data measured in the concentration range 0-100 μmol·l^−1 of helquats.

HUVEC = test: XTT cytotoxicity/proliferation assay, HUVEC; format: cell-based, human; settings: Homo sapiens, HUVEC
Procedure: To assess the antiproliferative effects of the tested substances in vitro, tumor cell line CCRF-CEM derived from acute lymphoblastic leukemia and normal (healthy) HUVEC endothelial cells from umbilical vein were used. Both of these cell lines were cultured under optimal conditions for their growth in the appropriate medium in plastic bottles or plastic Petri dishes of various sizes (TPP, BD Biosciences) at 37° C., 5% CO2 and 95% humidity. HUVEC cells were purchased from BD Biosciences. CCRF-CEM cell line was obtained from ATCC/LGC Standards (American Type Cell Collection). Normal human endothelial cells from the umbilical vein are adherent cells, which were grown in plastic Petri dishes coated with collagen I. The culture medium (E-STIMTM; BD Biosciences, cat. […] Then, 5 ml of complete culture media E-STIM™ was added and the cells were centrifuged (180×g, 7 minutes), resuspended and transferred in a desired amount in a new Petri dish with fresh medium. In the experiments cells between passages 3 and 8 (after thawing) were used. Population doubling time of HUVEC cells under the used culture conditions is 38 hours. For testing of the sensitivity of cell lines to studied helquats XTT cytotoxicity/proliferation assay for determination of cell viability was used. This method is based on the ability of metabolically active cells to reduce the yellow tetrazolium salt XTT to orange formazan. The rate of conversion is measured as the increase in absorbance at 492 nm and is proportional to the enzymatic activity of mitochondrial dehydrogenases and thus the number of metabolically active (viable) cells. […] Thus it reflects the effectiveness of the test substance towards the tested cell line. Cells in exponential growth phase were plated into 96-well microtiter plate at a concentration of 3000 cells per well. Each well contained 90 μl of cell suspension. The following day, 10 μl of 10× concentrated test substances was added. […] In addition to the part of the plate containing the mentioned dilutions of test compounds there were always two control columns present, first column with medium alone (i.e. blank) and the second column with the cells in medium without test compounds (control). Into the blank and control wells the same volume of solvent (water) as the volume of the substances was added. After 72 hours of treatment with substances the measurement of viability was performed according to the manufacturer instructions. Briefly, into each well of a 96-well microtiter plate 50 μl of the prepared working solution of XTT (detection reagent) was added and then the microtiter plate was returned to the CO2 incubator. After 2 hours, the absorbance of each well at 492 nm (reference wavelength 690 nm) was measured using a multifunctional microplate reader (Tecan Genios, Austria).

[1] = 72 hours of treatment, read-out: IC50 CCRF CEM
[2] = 72 hours of treatment, values above 100 μmol·l^−1 obtained by extrapolation, read-out: IC50 HUVEC

SMILES | c-myc protein expression relative to control (control = 100%) (c-myc protein) | IC50 (CCRF-CEM; [1]) | IC50 (HUVEC; [2]) | IC50 (CCRF-CEM; 72 hours, summary of table 9, read-out: concentrations toxic towards CCRF-CEM cells) | IC50 (HUVEC; 72 hours, summary of table 9, read-out: concentrations non-toxic towards HUVEC cells)
C(=C\c1ccc(-c2cccs2)s1)/c1cc(/C=C/c2ccc(-c3cccs3)s2)[n+]2c(c1)-c1c(ccc3c1-c1cccc[n+]1CC3)CC2.O=S(=O)([O-])C(F)(F)F.O=S(=O)([O-])C(F)(F)F [HTA-C9-16, 2,4-bis((E)-2-([2,2′-bithiophen]-5-yl)vinyl)-6,7,10,11-tetrahydrodipyrido[2,1-a:1′,2′-k][2,9]phenanthroline-5,12-diium trifluoromethanesulfonate] | 32% | 11 to 25 µM | 26 to 50 µM | – | –
C(=C\c1cc2ccccc2o1)/c1cc(/C=C/c2cc3ccccc3o2)[n+]2c(c1)-c1c(ccc3c1-c1cccc[n+]1CC3)CC2.O=S(=O)([O-])C(F)(F)F.O=S(=O)([O-])C(F)(F)F [HTA-C9-17, 2,4-bis((E)-2-(benzofuran-2-yl)vinyl)-6,7,10,11-tetrahydrodipyrido[2,1-a:1′,2′-k][2,9]phenanthroline-5,12-diium trifluoromethanesulfonate] | 44% | 26 to 50 µM | ≥ 51 µM | – | –
C(=C\c1cc2ccccc2[n+]2c1-c1c(ccc3c1-c1cccc[n+]1CCC3)CCC2)/c1ccc(-c2cccs2)s1.O=S(=O)([O-])C(F)(F)F.O=S(=O)([O-])C(F)(F)F [MSC-C9-16, 19-((E)-2-([2,2′-bithiophen]-5-yl)vinyl)-6,7,8,11,12,13-hexahydropyrido[1′″,2′″:1″,2″]azepino[4″,3″:5′,6′]benzo[1′,2′:3,4]azepino[1,2-a]quinoline-5,14-diium trifluoromethanesulfonate] | 36% | ≤ 10 µM | ≥ 100 µM | < 25 µM | > 100 µM
Brc1ccc2c(/C=C/c3cc4ccccc4[n+]4c3-c3c(ccc5c3-c3cccc[n+]3CCC5)CCC4)c[nH]c2c1.O=S(=O)([O-])C(F)(F)F.O=S(=O)([O-])C(F)(F)F [MSC-C9-18, 19-((E)-2-(6-bromo-1H-indol-3-yl)vinyl)-6,7,8,11,12,13-hexahydropyrido[1′″,2′″:1″,2″]azepino[4″,3″:5′,6′]benzo[1′,2′:3,4]azepino[1,2-a]quinoline-5,14-diium trifluoromethanesulfonate] | 31% | 11 to 25 µM | ≥ 51 µM | – | –
Cc1c(/C=C/c2cc3ccccc3[n+]3c2-c2c(ccc4c2-c2cccc[n+]2CCC4)CCC3)sc2ccccc12.O=S(=O)([O-])C(F)(F)F.O=S(=O)([O-])C(F)(F)F [MSC-C10-36, 19-((E)-2-(3-methylbenzo[b]thiophen-2-yl)vinyl)-6,7,8,11,12,13-hexahydropyrido[1′″,2′″:1″,2″]azepino[4″,3″:5′,6′]benzo[1′,2′:3,4]azepino[1,2-a]quinoline-5,14-diium trifluoromethanesulfonate] | 85% | ≤ 10 µM | ≥ 51 µM | – | –
